Source: ChEMBL document CHEMBL3632524, “3-(2,6-Dichloro-benzyloxy)-11-oxo-olean-12-ene-29-oic acid, a semisynthetic derivative of glycyrrhetic acid: synthesis, antiproliferative, apoptotic and anti-angiogenesis activity” (Medchemcomm, 2015)

What was measured:
Assay type in all cases: functional, cell-based
[1] = Antiproliferative activity against human MIAPaCa2 cells assessed as cell viability after 48 hrs by MTT assay; conditions: MIA PaCa-2, 48 h
PC-3 = assay: Antiproliferative activity against human PC3 cells assessed as cell viability after 48 hrs by MTT assay; conditions: PC-3, 48 h
HepG2 = assay: Antiproliferative activity against human HepG2 cells assessed as cell viability after 48 hrs by MTT assay; conditions: HepG2, 48 h

SMILES | IC50 [1] | IC50 (PC-3) | IC50 (HepG2)
CC1(C)[C@@H](OCc2ccc(F)c(Br)c2)CC[C@]2(C)[C@H]3C(=O)C=C4[C@@H]5C[C@@](C)(C(=O)O)CC[C@]5(C)CC[C@@]4(C)[C@]3(C)CC[C@@H]12 | > 20 µM | > 20 µM | > 20 µM
CC1(C)[C@@H](OCc2ccc(Cl)cc2)CC[C@]2(C)[C@H]3C(=O)C=C4[C@@H]5C[C@@](C)(C(=O)O)CC[C@]5(C)CC[C@@]4(C)[C@]3(C)CC[C@@H]12 | > 20 µM | > 20 µM | > 20 µM
COc1ccc(CO[C@H]2CC[C@]3(C)[C@H]4C(=O)C=C5[C@@H]6C[C@@](C)(C(=O)O)CC[C@]6(C)CC[C@@]5(C)[C@]4(C)CC[C@H]3C2(C)C)cc1Br | > 20 µM | > 20 µM | > 20 µM
CC[C@@]1(O)C(=O)OCc2c1cc1n(c2=O)Cc2cc3ccccc3nc2-1 [CAMPTOTHECIN] | 0.19 µM |  | 0.2 µM
CC1(C)[C@@H](OCc2cccc(Cl)c2)CC[C@]2(C)[C@H]3C(=O)C=C4[C@@H]5C[C@@](C)(C(=O)O)CC[C@]5(C)CC[C@@]4(C)[C@]3(C)CC[C@@H]12 | > 20 µM | > 20 µM | > 20 µM
CC(C)=CCC/C(C)=C\CO[C@H]1CC[C@]2(C)[C@H]3C(=O)C=C4[C@@H]5C[C@@](C)(C(=O)O)CC[C@]5(C)CC[C@@]4(C)[C@]3(C)CC[C@H]2C1(C)C | > 20 µM | > 20 µM | > 20 µM
COc1ccc(CO[C@H]2CC[C@]3(C)[C@H]4C(=O)C=C5[C@@H]6C[C@@](C)(C(=O)O)CC[C@]6(C)CC[C@@]5(C)[C@]4(C)CC[C@H]3C2(C)C)cc1OC | > 20 µM | > 20 µM | > 20 µM
CO[C@H]1CC[C@]2(C)[C@H]3C(=O)C=C4[C@@H]5C[C@@](C)(C(=O)O)CC[C@]5(C)CC[C@@]4(C)[C@]3(C)CC[C@H]2C1(C)C | > 20 µM | > 20 µM | > 20 µM
CC1(C)[C@@H](OCc2ccc(Cl)cc2Cl)CC[C@]2(C)[C@H]3C(=O)C=C4[C@@H]5C[C@@](C)(C(=O)O)CC[C@]5(C)CC[C@@]4(C)[C@]3(C)CC[C@@H]12 | > 100 µM | 18 µM | > 100 µM
CC1(C)[C@@H](OCc2cccc([N+](=O)[O-])c2)CC[C@]2(C)[C@H]3C(=O)C=C4[C@@H]5C[C@@](C)(C(=O)O)CC[C@]5(C)CC[C@@]4(C)[C@]3(C)CC[C@@H]12 | > 20 µM | > 20 µM | > 20 µM
CC1(C)[C@@H](OCc2ccc(F)cc2)CC[C@]2(C)[C@H]3C(=O)C=C4[C@@H]5C[C@@](C)(C(=O)O)CC[C@]5(C)CC[C@@]4(C)[C@]3(C)CC[C@@H]12 | 12 µM | 9 µM | > 100 µM
